Drawing on patent publication US9499550B2 (BRISTOL-MYERS SQUIBB COMPANY, priority 2012, dated 2016), this text covers EC50 for twelve compounds.

Bounds are passed on as bounds.

In assay [1] the test system is HCV genotype 1a (H77 strain) replicon in HUH-7 cells. Briefly: HCV replicon luciferase reporter assay, genotype 1a. Type of assay: cell-based. Particulars: Hepatitis C virus, Huh-7, 72 h, HCV genotype 1a replicon luciferase assay, 3 days incubation, range class, read-out: LE_1a (EC50, range). The procedure, abridged:
(§1)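 Replicon inhibition for both genotypes was measured as Renilla luciferase signal (EnduRen, 7.5 μM final, 2 h) after 3-day, 37° C exposure of replicon-bearing HUH-7 cells in 4% FCS DMEM, 0.5% DMSO. The 1b construct carries S1179I; the 1a H77 construct carries P1496L and S2204I. Twenty-point, 3-fold dilutions were fitted four-parametrically for EC50, and CC50 was taken from multiplexed Cell Titer-Blue.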

Assay [2] has as its system HCV genotype 1b (Con1) replicon in HUH-7 cells. Description: HCV replicon luciferase reporter assay, genotype 1b. Format: cell-based. Particulars: Hepatitis C virus, Huh-7, 72 h, HCV genotype 1b replicon luciferase assay, 3 days incubation, range class, read-out: LE_1b (EC50, range). The procedure, abridged:
as §1
In general terms: Replicon systems follow genome replication, usually without infectious particles.

A word on the EC50: it is the concentration at which the effect is half-maximal. With `COc1ccc2c(O[C@@H]3C[C@H]4C(=O)N[C@]5(C(=O)NS(=O)(=O)C6(C)CC6)C[C@H]5/C=C\CC[C@@H](C)C[C@@H](C)[C@H](NC(=O)OC(C)(C)C(F)(F)F)C(=O)N4C3)nc(-c3ccc(OC(C)C)c(F)c3)cc2c1` [Compound 3078, 1,1,1-trifluoro-2-methylpropan-2-yl((2R,6S,7R,9R,13aS,14aR,16aS,Z)-2-((3-(3-fluoro-4-isopropoxyphenyl)-6-methoxyisoquinolin-1-yl)oxy)-7,9-dimethyl-14a-(((1-methylcyclopropyl)sulfonyl)carbamoyl)-5,16-dioxo-1,2,3,5,6,7,8,9,10,11,13a,14,14a,15,16,16a-hexadecahydrocyclopropa[e]pyrrolo[1,2-a][1,4]diazacyclopentadecin-6-yl)carbamate], the EC50 in assay [1] and in assay [2] was under 5.46 nM in each case.
In the case of `COc1ccc2c(O[C@@H]3C[C@H]4C(=O)N[C@]5(C(=O)NS(=O)(=O)C6(C)CC6)C[C@H]5/C=C\CC[C@H](C)C[C@@H](C)[C@H](NC(=O)OC(C)(C)C(F)(F)F)C(=O)N4C3)nc(-c3ccc(F)cc3)cc2c1` [Compound 3079, 1,1,1-trifluoro-2-methylpropan-2-yl((2R,6S,7R,9S,13aS,14aR,16aS,Z)-2-((3-(4-fluorophenyl)-6-methoxyisoquinolin-1-yl)oxy)-7,9-dimethyl-14a-(((1-methylcyclopropyl)sulfonyl)carbamoyl)-5,16-dioxo-1,2,3,5,6,7,8,9,10,11,13a,14,14a,15,16,16a-hexadecahydrocyclopropa[e]pyrrolo[1,2-a][1,4]diazacyclopentadecin-6-yl)carbamate], the concentration giving a half-maximal response (EC50) in assay [1] is 4.82 to 103 nM; in assay [2] it was under 5.46 nM.
For the compound `COc1ccc2c(O[C@@H]3C[C@H]4C(=O)N[C@]5(C(=O)NS(=O)(=O)C6(C)CC6)C[C@H]5/C=C\CC[C@@H](C)C[C@@H](C)[C@H](NC(=O)OC(C)(C)C(F)(F)F)C(=O)N4C3)nc(-c3ccc(F)cc3)cc2c1` [Compound 3080, 1,1,1-trifluoro-2-methylpropan-2-yl((2R,6S,7R,9R,13aS,14aR,16aS,Z)-2-((3-(4-fluorophenyl)-6-methoxyisoquinolin-1-yl)oxy)-7,9-dimethyl-14a-(((1-methylcyclopropyl)sulfonyl)carbamoyl)-5,16-dioxo-1,2,3,5,6,7,8,9,10,11,13a,14,14a,15,16,16a-hexadecahydrocyclopropa[e]pyrrolo[1,2-a][1,4]diazacyclopentadecin-6-yl)carbamate], the 50% effective concentration (EC50) in assay [1] and in assay [2] was under 5.46 nM throughout.
As for `COc1ccc2c(O[C@@H]3C[C@H]4C(=O)N[C@]5(C(=O)NS(=O)(=O)C6(C)CC6)C[C@H]5/C=C\CC[C@H](C)C[C@@H](C)[C@H](NC(=O)OC(C)(C)C)C(=O)N4C3)nc(-c3ccc(F)cc3)cc2c1` [Compound 3081, tert-butyl ((2R,6S,7R,9S,13aS,14aR,16aS,Z)-2-((3-(4-fluorophenyl)-6-methoxyisoquinolin-1-yl)oxy)-7,9-dimethyl-14a-(((1-methylcyclopropyl)sulfonyl)carbamoyl)-5,16-dioxo-1,2,3,5,6,7,8,9,10,11,13a,14,14a,15,16,16a-hexadecahydrocyclopropa[e]pyrrolo[1,2-a][1,4]diazacyclopentadecin-6-yl)carbamate], the concentration for a half-maximal effect (EC50) was 4.82 to 103 nM in assay [1] and under 5.46 nM in assay [2].
Taken in the same sequence, the figures for `COc1ccc2c(O[C@@H]3C[C@H]4C(=O)N[C@]5(C(=O)NS(=O)(=O)C6(C)CC6)C[C@H]5/C=C\CC[C@@H](C)C[C@@H](C)[C@H](NC(=O)OC(C)(C)C)C(=O)N4C3)nc(-c3ccc(F)cc3)cc2c1` [Compound 3082, tert-butyl ((2R,6S,7R,9R,13aS,14aR,16aS,Z)-2-((3-(4-fluorophenyl)-6-methoxyisoquinolin-1-yl)oxy)-7,9-dimethyl-14a-(((1-methylcyclopropyl)sulfonyl)carbamoyl)-5,16-dioxo-1,2,3,5,6,7,8,9,10,11,13a,14,14a,15,16,16a-hexadecahydrocyclopropa[e]pyrrolo[1,2-a][1,4]diazacyclopentadecin-6-yl)carbamate] were under 5.46 nM and under 5.46 nM.
Turning to `COc1ccc2c(O[C@@H]3C[C@H]4C(=O)N[C@]5(C(=O)NS(=O)(=O)C6(C)CC6)C[C@H]5/C=C\CC[C@@H](C)C[C@@H](C)[C@H](NC(=O)O[C@H](C)C(F)(F)F)C(=O)N4C3)nc(-c3ccc(F)cc3)cc2c1` [Compound 3083, (R)-1,1,1-trifluoropropan-2-yl ((2R,6S,7R,9R,13aS,14aR,16aS,Z)-2-((3-(4-fluorophenyl)-6-methoxyisoquinolin-1-yl)oxy)-7,9-dimethyl-14a-(((1-methylcyclopropyl)sulfonyl)carbamoyl)-5,16-dioxo-1,2,3,5,6,7,8,9,10,11,13a,14,14a,15,16,16a-hexadecahydrocyclopropa[e]pyrrolo[1,2-a][1,4]diazacyclopentadecin-6-yl)carbamate], the EC50 in assay [1] and in assay [2] was under 5.46 nM each time.
On to `COc1ccc2c(O[C@@H]3C[C@H]4C(=O)N[C@]5(C(=O)NS(=O)(=O)C6(C)CC6)C[C@H]5/C=C\CC[C@H](C)C[C@@H](C)[C@H](NC(=O)OCC5(C)CC5)C(=O)N4C3)nc(-c3ccc(F)cc3)cc2c1` [Compound 3084, (1-methylcyclopropyl)methyl ((2R,6S,7R,9S,13aS,14aR,16aS,Z)-2-((3-(4-fluorophenyl)-6-methoxyisoquinolin-1-yl)oxy)-7,9-dimethyl-14a-(((1-methylcyclopropyl)sulfonyl)carbamoyl)-5,16-dioxo-1,2,3,5,6,7,8,9,10,11,13a,14,14a,15,16,16a-hexadecahydrocyclopropa[e]pyrrolo[1,2-a][1,4]diazacyclopentadecin-6-yl)carbamate], for which the EC50 in assay [1] is 4.82 to 103 nM; in assay [2], under 5.46 nM.
In the same order, the values of `COc1ccc2c(O[C@@H]3C[C@H]4C(=O)N[C@]5(C(=O)NS(=O)(=O)C6(C)CC6)C[C@H]5/C=C\CC[C@@H](C)C[C@@H](C)[C@H](NC(=O)OCC5(C)CC5)C(=O)N4C3)nc(-c3ccc(F)cc3)cc2c1` [Compound 3085, (1-methylcyclopropyl)methyl ((2R,6S,7R,9R,13aS,14aR,16aS,Z)-2-((3-(4-fluorophenyl)-6-methoxyisoquinolin-1-yl)oxy)-7,9-dimethyl-14a-(((1-methylcyclopropyl)sulfonyl)carbamoyl)-5,16-dioxo-1,2,3,5,6,7,8,9,10,11,13a,14,14a,15,16,16a-hexadecahydrocyclopropa[e]pyrrolo[1,2-a][1,4]diazacyclopentadecin-6-yl)carbamate] are under 5.46 nM and under 5.46 nM.
In the case of `COc1ccc2c(O[C@@H]3C[C@H]4C(=O)N[C@]5(C(=O)NS(=O)(=O)C6(C)CC6)C[C@H]5/C=C\CC[C@H](C)C[C@@H](C)[C@H](NC(=O)O[C@@H]5C[C@@H]6C[C@@H]6C5)C(=O)N4C3)nc(-c3ccc(F)cc3)cc2c1` [Compound 3086, (1R,3r,5S)-bicyclo[3.1.0]hexan-3-yl((2R,6S,7R,9S,13aS,14aR,16aS,Z)-2-((3-(4-fluorophenyl)-6-methoxyisoquinolin-1-yl)oxy)-7,9-dimethyl-14a-(((1-methylcyclopropyl)sulfonyl)carbamoyl)-5,16-dioxo-1,2,3,5,6,7,8,9,10,11,13a,14,14a,15,16,16a-hexadecahydrocyclopropa[e]pyrrolo[1,2-a][1,4]diazacyclopentadecin-6-yl)carbamate], the EC50 in assay [1] and in assay [2] was under 5.46 nM each time.
On to `COc1ccc2c(O[C@@H]3C[C@H]4C(=O)N[C@]5(C(=O)NS(=O)(=O)C6(C)CC6)C[C@H]5/C=C\CC[C@@H](C)C[C@@H](C)[C@H](NC(=O)O[C@@H]5C[C@@H]6C[C@@H]6C5)C(=O)N4C3)nc(-c3ccc(F)cc3)cc2c1` [Compound 3087, (1R,3r,5S)-bicyclo[3.1.0]hexan-3-yl((2R,6S,7R,9R,13aS,14aR,16aS,Z)-2-((3-(4-fluorophenyl)-6-methoxyisoquinolin-1-yl)oxy)-7,9-dimethyl-14a-(((1-methylcyclopropyl)sulfonyl)carbamoyl)-5,16-dioxo-1,2,3,5,6,7,8,9,10,11,13a,14,14a,15,16,16a-hexadecahydrocyclopropa[e]pyrrolo[1,2-a][1,4]diazacyclopentadecin-6-yl)carbamate], for which the EC50 in assay [1] and in assay [2] was under 5.46 nM each time.
As for `COc1ccc2c(O[C@@H]3C[C@H]4C(=O)N[C@]5(C(=O)NS(=O)(=O)C6(C)CC6)C[C@H]5/C=C\CC[C@H](C)C[C@@H](C)[C@H](NC(=O)OC(C)(C)C)C(=O)N4C3)nc(N3CCOCC3)cc2c1` [Compound 3088, tert-butyl ((2R,6S,7R,9S,13aS,14aR,16aS,Z)-2-((6-methoxy-3-morpholinoisoquinolin-1-yl)oxy)-7,9-dimethyl-14a-(((1-methylcyclopropyl)sulfonyl)carbamoyl)-5,16-dioxo-1,2,3,5,6,7,8,9,10,11,13a,14,14a,15,16,16a-hexadecahydrocyclopropa[e]pyrrolo[1,2-a][1,4]diazacyclopentadecin-6-yl)carbamate], the EC50 in assay [1] and in assay [2] was under 5.46 nM throughout.
`COc1ccc2c(O[C@@H]3C[C@H]4C(=O)N[C@]5(C(=O)NS(=O)(=O)C6(C)CC6)C[C@H]5/C=C\CC[C@@H](C)C[C@@H](C)[C@H](NC(=O)OC(C)(C)C)C(=O)N4C3)nc(N3CCOCC3)cc2c1` [Compound 3089, tert-butyl ((2R,6S,7R,9R,13aS,14aR,16aS,Z)-2-((6-methoxy-3-morpholinoisoquinolin-1-yl)oxy)-7,9-dimethyl-14a-(((1-methylcyclopropyl)sulfonyl)carbamoyl)-5,16-dioxo-1,2,3,5,6,7,8,9,10,11,13a,14,14a,15,16,16a-hexadecahydrocyclopropa[e]pyrrolo[1,2-a][1,4]diazacyclopentadecin-6-yl)carbamate]: the half-maximal effective concentration (EC50) in assay [1] and in assay [2] was under 5.46 nM in each case.
